Where two headings read alike, the source gives them in different places.
How the values were obtained:
JAK2 = JAK2 (Homo sapiens, UniProt O60674); assay: JAK2 kinase activity test at molecular level (Z'-LYTE FRET); format: biochemical
Experimental: JAK2 can catalyze the transfer of a phosphate group of adenosine triphosphate (ATP) to a polypeptide substrate, and the polypeptide substrate is labeled with two fluorescent groups, coumarin and fluorescein. […] Therefore, the inhibition rates of different compounds can be calculated by measuring the ratio of enzyme-catalyzed substrate phosphorylation percentages.
10 μL reaction system, 2.5 μL test compound, 5 μL kinase/peptide substrate mixture and 2.5 μL ATP solution were added into a 384-well plate, shaken for 30 s, and incubated at room temperature for 1 hour. 5 μL of proteolytic enzyme and 15 μL of the reaction system were added and shaken for 30 s and incubated at room temperature for 1 h. 5 μL of stop reagent was added, and the reaction system with a total volume of 20 μL was shaken for 30 seconds. A microplate reader was used to detect the fluorescence signal. […] The inhibition rates of the compound at 7 concentration gradients were determined, and the IC50 value for each compound was calculated by fitting curve with Origin 8.0.
(§1) NOTE: HEL, SET-2, H3122 cells were purchased from ATCC (American type culture collection), Z′-LYTETM kinase assay platform was purchased from Invitrogen, HTRF KinEASETM-TK was purchased from Cisbio, and Cell Counting Kit-8 was purchased from Beyotime.

HEL (JAK2 V617F) cells = assay: CCK-8 cell proliferation detection, HEL cells; format: cell-based; conditions: Homo sapiens, Table 2, CCK-8, 72 hrs
Description: (§2) WST-8 (chemical name: 2-(2-methoxy-4-nitrophenyl)-3-(4-nitrophenyl)-5-(2,4-disulfo benzene)-2H-tetrazolium monosodium), which is reduced to a highly water-soluble yellow formazan product (Formazan dye) by the dehydrogenase in cells under the action of the electron carrier dimethyl 1-methoxy-5-methylphenazinium sulfate (1-Methoxy PMS). The amount of the produced formazan is proportional to the number of living cells. Therefore, the survival rate of cells can be calculated indirectly by measuring the absorbance at 450 nm. The half inhibition rate of the compound on the proliferation of H3122, SET2, HEL cells can be determined by the CCK-8 method.
(§3) RPIM medium containing 10% FBS was used to culture cells (100 μL per well), and 3500 cells were inoculated into a 96-well plate, and placed in a 37° C., 5% CO2 incubator for 24 h, until 50%-70% of the cell confluence was achieved. Drugs with different concentration gradients were added respectively, and incubated for another 72 hrs. […] And finally the absorption value of each well was measured at 450 nm.
as §1

SET 2 (JAK2 V617F) cells = assay: CCK-8 cell proliferation detection, SET2 cells; format: cell-based; conditions: Homo sapiens, Table 2, CCK-8, 72 hrs
Description: as §2, §3, §1

H3122 cells = assay: CCK-8 cell proliferation detection, H3122 cells; format: cell-based; conditions: Homo sapiens
Description: as §2, §3, §1

ALK = ALK (Homo sapiens, UniProt Q9UM73); assay: ALK kinase IC50 test (HTRF); format: biochemical
Description: According to HTRF method, the peptide substrate was labeled with a biotin, which can specifically bind to XL665-labeled streptavidin. When the kinase adds a phosphate group to the polypeptide substrate in the first step, its Eu-labeled specific phosphorylation antibody can recognize and bind to it. In this way, in the second step of detection, a complex of XL665-labeled streptavidin, phosphorylated peptide substrate and Eu-labeled phosphorylation antibody can be formed. Since the distance between XL665 and Eu is short, FRET can be formed. On the other hand, Eu has a relatively long fluorescence half-life and can be applied to time-resolved fluorescence detection.
10 μL of reaction system, 4 μL test compound, 2 μL kinase, 2 μL biotin-labeled substrate and 2 μL ATP, was added into a 384-well plate, shaken for 30 s, and incubated at room temperature for 1 hour. 5 μL of Eu-labeled phosphorylation site-specific antibody and 5 μL of XL665-labeled streptavidin were added. The reaction system was shaken for 30 s, and incubated at room temperature for 1 hour. A microplate reader was used to detect the fluorescence signal. The inhibition rates of the compounds under 8 concentration gradients were determined, and the IC50 value of each compound was calculated by fitting curve with Origin 8.0. […] Each experiment was performed in triplicate.
as §1

[1] = NCI-H3122, Table 2, CCK-8, 72 hrs
[2] = NCI-H3122, 72 h, Table 2, CCK-8, 72 hrs
[3] = Table 1, read-out: JAK2 kinase activity IC50

Chain of ALK (Q9UM73 19-1620, species assumed): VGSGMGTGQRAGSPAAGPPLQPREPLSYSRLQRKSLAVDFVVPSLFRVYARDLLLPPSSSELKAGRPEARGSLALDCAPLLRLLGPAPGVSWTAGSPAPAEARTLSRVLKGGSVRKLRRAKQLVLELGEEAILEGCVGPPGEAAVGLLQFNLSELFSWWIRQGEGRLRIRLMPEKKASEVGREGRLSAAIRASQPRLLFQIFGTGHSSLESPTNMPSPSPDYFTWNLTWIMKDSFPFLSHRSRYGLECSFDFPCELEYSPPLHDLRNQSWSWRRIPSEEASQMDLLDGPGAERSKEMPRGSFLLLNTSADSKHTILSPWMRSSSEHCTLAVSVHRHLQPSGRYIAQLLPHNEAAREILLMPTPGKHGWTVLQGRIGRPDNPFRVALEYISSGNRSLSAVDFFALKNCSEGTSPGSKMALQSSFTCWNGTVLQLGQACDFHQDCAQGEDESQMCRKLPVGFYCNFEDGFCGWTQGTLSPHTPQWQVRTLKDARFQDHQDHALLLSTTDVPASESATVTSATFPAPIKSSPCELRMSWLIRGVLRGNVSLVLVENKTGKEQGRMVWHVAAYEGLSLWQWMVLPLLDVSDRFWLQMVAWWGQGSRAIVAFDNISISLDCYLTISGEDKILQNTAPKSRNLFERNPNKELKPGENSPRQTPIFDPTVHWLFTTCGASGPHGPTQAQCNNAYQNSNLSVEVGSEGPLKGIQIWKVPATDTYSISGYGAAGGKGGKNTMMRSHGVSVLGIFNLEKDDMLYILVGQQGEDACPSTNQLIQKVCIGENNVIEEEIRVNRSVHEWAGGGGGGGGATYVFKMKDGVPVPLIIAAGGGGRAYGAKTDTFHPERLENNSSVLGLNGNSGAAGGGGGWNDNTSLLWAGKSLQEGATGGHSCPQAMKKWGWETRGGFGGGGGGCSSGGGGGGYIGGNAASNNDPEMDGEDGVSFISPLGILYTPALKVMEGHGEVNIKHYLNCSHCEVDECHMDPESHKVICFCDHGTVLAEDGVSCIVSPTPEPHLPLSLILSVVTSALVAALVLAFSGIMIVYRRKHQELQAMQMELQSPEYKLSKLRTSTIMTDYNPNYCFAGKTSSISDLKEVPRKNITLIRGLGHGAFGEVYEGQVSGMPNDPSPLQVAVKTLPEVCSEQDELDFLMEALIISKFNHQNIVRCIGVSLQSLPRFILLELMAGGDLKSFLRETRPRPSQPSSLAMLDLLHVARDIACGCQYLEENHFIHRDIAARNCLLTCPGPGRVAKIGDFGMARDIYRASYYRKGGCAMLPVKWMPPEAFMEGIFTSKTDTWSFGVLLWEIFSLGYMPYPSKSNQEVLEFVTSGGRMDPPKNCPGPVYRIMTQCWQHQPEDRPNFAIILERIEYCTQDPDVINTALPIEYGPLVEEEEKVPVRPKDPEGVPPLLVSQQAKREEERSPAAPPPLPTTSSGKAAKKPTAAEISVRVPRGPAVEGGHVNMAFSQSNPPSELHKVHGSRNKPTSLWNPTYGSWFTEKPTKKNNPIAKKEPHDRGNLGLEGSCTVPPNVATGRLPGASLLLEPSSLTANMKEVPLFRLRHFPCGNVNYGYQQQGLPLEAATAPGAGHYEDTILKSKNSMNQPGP
Chain of JAK2 (O60674 whole entry): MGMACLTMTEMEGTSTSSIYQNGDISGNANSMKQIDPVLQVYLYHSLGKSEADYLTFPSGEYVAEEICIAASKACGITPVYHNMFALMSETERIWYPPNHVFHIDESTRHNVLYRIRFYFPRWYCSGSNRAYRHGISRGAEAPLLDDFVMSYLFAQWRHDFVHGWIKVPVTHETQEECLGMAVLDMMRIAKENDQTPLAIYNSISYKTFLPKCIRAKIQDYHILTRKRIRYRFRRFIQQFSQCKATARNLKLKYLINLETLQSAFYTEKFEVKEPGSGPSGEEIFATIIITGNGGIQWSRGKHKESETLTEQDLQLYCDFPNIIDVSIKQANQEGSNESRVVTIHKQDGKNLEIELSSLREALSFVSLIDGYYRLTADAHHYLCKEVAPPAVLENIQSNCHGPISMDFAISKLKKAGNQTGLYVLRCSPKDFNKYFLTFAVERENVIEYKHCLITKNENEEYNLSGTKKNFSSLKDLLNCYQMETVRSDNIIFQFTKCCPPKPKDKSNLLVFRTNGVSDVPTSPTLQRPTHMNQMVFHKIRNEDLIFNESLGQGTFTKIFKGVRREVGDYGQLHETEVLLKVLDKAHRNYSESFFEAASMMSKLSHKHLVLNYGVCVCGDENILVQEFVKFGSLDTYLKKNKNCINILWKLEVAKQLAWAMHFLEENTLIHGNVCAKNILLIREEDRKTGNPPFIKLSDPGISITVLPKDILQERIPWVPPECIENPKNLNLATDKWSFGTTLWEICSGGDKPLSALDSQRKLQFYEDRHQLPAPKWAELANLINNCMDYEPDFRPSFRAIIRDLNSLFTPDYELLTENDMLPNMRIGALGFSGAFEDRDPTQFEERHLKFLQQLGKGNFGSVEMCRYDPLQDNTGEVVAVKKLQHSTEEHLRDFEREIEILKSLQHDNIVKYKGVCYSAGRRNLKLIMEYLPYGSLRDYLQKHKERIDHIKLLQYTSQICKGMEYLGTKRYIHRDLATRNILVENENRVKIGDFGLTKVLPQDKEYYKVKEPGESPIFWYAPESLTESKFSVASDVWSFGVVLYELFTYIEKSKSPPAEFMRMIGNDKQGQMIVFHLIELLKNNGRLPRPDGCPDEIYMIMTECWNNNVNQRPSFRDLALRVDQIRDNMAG

Row | Structure (SMILES) | IC50 (JAK2; Table 2, read-out: JAK2 IC50) | IC50 (HEL (JAK2 V617F) cells) | IC50 (SET 2 (JAK2 V617F) cells; SET-2) | IC50 (H3122 cells; [1]) | IC50 (ALK; Table 2) | IC50 (H3122 cells; [2]) | IC50 (H3122 cells; NCI-H3122, Table 4, configurations of MXY-193) | IC50 (ALK; Table 4, configurations of MXY-193) | IC50 (JAK2; [3]) | IC50 (HEL (JAK2 V617F) cells; 72 h) | IC50 (SET 2 (JAK2 V617F) cells; SET-2, 72 h)
1 | CC(Oc1cc(-c2c[nH]c3ccccc23)cnc1N)c1cc(F)ccc1Cl (stereo not drawn) [MXY-137] | 0.925 ± 0.102 µM | 1.67 µM | 12.5 µM | 50.6 ± 8.01 µM | 5.5 µM | – | – | – | – | – | –
2 | CC(Oc1cc(-c2cc3ccccc3[nH]2)cnc1N)c1cc(F)ccc1Cl (stereo not drawn) [MXY-141] | – | 12.2 µM | 13.2 µM | > 100 µM | > 10 µM | – | – | – | – | – | –
3 | CC(Oc1cc(Nc2ccccc2)cnc1N)c1cc(F)ccc1Cl (stereo not drawn) [MXY-171] | 3.35 ± 0.063 µM | 2.11 µM | 2.14 µM | 17.57 ± 0.161 µM | > 10 µM | – | – | – | – | – | –
4 | CC(Oc1cc(Nc2ccccn2)cnc1N)c1cc(F)ccc1Cl (stereo not drawn) [MXY-175] | 1.1 ± 0.081 µM | 2.23 µM | 11 µM | > 100 µM | > 10 µM | – | – | – | – | – | –
5 | CC(Oc1cc(-c2cnn3cccnc23)cnc1N)c1cc(F)ccc1Cl (stereo not drawn) [MXY-181] | 0.145 ± 0.01 µM | 49 µM | > 50 µM | 62.5 ± 4.78 µM | 2.34 µM | – | – | – | – | – | –
6 | Cc1cc(Nc2cnc(N)c(OC(C)c3cc(F)ccc3Cl)c2)nn1C (stereo not drawn) [MXY-191] | 2.68 ± 0.05 µM | 23.1 µM | > 50 µM | > 100 µM | > 10 µM | – | – | – | – | – | –
7 | CC(Oc1cc(-c2cnn(C3CCOCC3)c2)cnc1N)c1cc(F)ccc1Cl (stereo not drawn) [MXY-193] | – | – | – | – | > 10 µM | 78.8 ± 2.27 µM | 78.8 ± 2.27 µM | > 10 µM | – | – | –
8 | N#CC[C@H](C1CCCC1)n1cc(-c2ncnc3[nH]ccc23)cn1 [Ruxolitinib, reference compound] | – | – | – | 27.2 ± 3.39 µM | – | – | – | – | – | – | –
9 | CC(Oc1cc(-c2cnn(C3CCNCC3)c2)cnc1N)c1cc(F)ccc1Cl (stereo not drawn) [WWQ-131, 4-{3-[1-(2-chloro-5-fluorophenyl)ethoxy]-2-aminopyridine}pyrazol-1-piperidine] | – | – | – | – | 0.089 µM | 1.591 ± 0.014 µM | – | – | 0.0067 ± 0.001 µM | 9.78 µM | 1.33 µM
10 | CC(Oc1cc(-c2cnn(C3CCNCC3)c2)cnc1N)c1c(Cl)cccc1Cl (stereo not drawn) [WWQ-133, 4-{3-[1-(2,6-dichlorophenyl)ethoxy]-2-aminopyridine}pyrazol-1-piperidine] | 0.442 ± 0.003 µM | 15 µM | 0.879 µM | > 10 µM | 0.511 µM | – | – | – | 0.442 ± 0.003 µM | – | –
11 | CCC(Oc1cc(-c2cnn(C3CCNCC3)c2)cnc1N)c1c(Cl)ccc(F)c1Cl (stereo not drawn) [WWQ-1093-13, 4-{3-[1-(2,6-dichloro-3-fluorophenyl)propoxy]-2-aminopyridine}pyrazol-1-piperidine] | 0.1 ± 0.002 µM | 37.3 µM | 7.86 µM | 3.537 ± 0.034 µM | 3.56 µM | – | – | – | 0.1 ± 0.002 µM | – | –
12 | CC(Oc1cc(-c2cnn(C3CCNCC3)c2)cnc1N)c1c(Cl)ccc(F)c1Cl (stereo not drawn) [WWQ-1093-65, 4-{3-[1-(2,6-dichloro-3-fluorophenyl)ethoxy]-2-aminopyridine}pyrazole-1-piperidine] | – | – | – | – | – | 0.648 ± 0.044 µM | – | – | – | 11.7 µM | 1.49 µM
13 | Cc1n[nH]c(C)c1-c1cnc(N)c(OC(C)c2cc(F)ccc2Cl)c1 (stereo not drawn) [XFL-107] | 0.844 ± 0.1 µM | 9.14 µM | 3.35 µM | 1.45 ± 0.118 µM | 3.37 µM | – | – | – | – | – | –
14 | CC(Oc1cc(-c2cnn(C)c2)cnc1N)c1cc(F)ccc1Cl (stereo not drawn) [XFL-111] | 0.024 ± 0.002 µM | 9.05 µM | 7.56 µM | 3.52 ± 0.605 µM | 0.201 µM | – | – | – | – | – | –
15 | CC(Oc1cc(-c2cnoc2)cnc1N)c1cc(F)ccc1Cl (stereo not drawn) [XFL-137] | > 10 µM | > 50 µM | > 10 µM | > 100 µM | > 10 µM | – | – | – | – | – | –
16 | CC(Oc1cc(-c2ccn[nH]2)cnc1N)c1cc(F)ccc1Cl (stereo not drawn) [XFL-141] | 0.3021 ± 0.003 µM | 5.41 µM | 2.48 µM | 78.6 ± 3 µM | – | – | – | – | – | – | –
17 | Cc1n[nH]cc1-c1cnc(N)c(OC(C)c2cc(F)ccc2Cl)c1 (stereo not drawn) [XFL-147] | 0.0408 ± 0.0006 µM | 6.15 µM | 4.05 µM | 2.1 ± 0.344 µM | 0.438 µM | – | – | – | – | – | –
